Measurements from patent publication US8969516B2, “Method of hydrolysis of peptide bond” (priority 2006, dated 2015).

Assay: MALDI-TOF screening of Ni^2+ dependent hydrolysis in a combinatorial peptide library
Assay type: physicochemical
Conditions: CH3CO-Gly-Ala-Thr-X-His-Z-Lys-Phe-Leu-NH2 library, Ni^2+ 2 mM, pH 8.2, 10 mM Tris, score=24/tm
How it was run: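 MALDI-TOF read-out: appearance of Ser/Thr-X-His-Z-Lys-Phe-Leu-NH2 product signals, plus loss of substrate signals, checked by eye at 2, 4, 6, 8 h. Conditions: 1 mM peptide mixture, 2 mM Ni2+, 10 mM Tris pH 8.2, 37 or 45 °C.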

Substance	hydrolysis score from MALDI-TOF screening (37° C.)	hydrolysis score from MALDI-TOF screening (45° C.)
Ac-GATMHWKFL-NH2 [TMHW]	3 (a score of 3 for detection at 8 hours)	3 (a score of 3 for detection at 8 hours)
Ac-GATMHYKFL-NH2 [TMHY]	0 (a score of 0 if no trace of the product of hydrolysis was seen after 8 hours of incubation)	0 (a score of 0 if no trace of the product of hydrolysis was seen after 8 hours of incubation)
Ac-GATNHAKFL-NH2 [TNHA]	0 (a score of 0 if no trace of the product of hydrolysis was seen after 8 hours of incubation)	0 (a score of 0 if no trace of the product of hydrolysis was seen after 8 hours of incubation)
Ac-GATNHDKFL-NH2 [TNHD]	0 (a score of 0 if no trace of the product of hydrolysis was seen after 8 hours of incubation)	0 (a score of 0 if no trace of the product of hydrolysis was seen after 8 hours of incubation)
Ac-GATNHEKFL-NH2 [TNHE]	0 (a score of 0 if no trace of the product of hydrolysis was seen after 8 hours of incubation)	0 (a score of 0 if no trace of the product of hydrolysis was seen after 8 hours of incubation)
Ac-GATNHFKFL-NH2 [TNHF]	0 (a score of 0 if no trace of the product of hydrolysis was seen after 8 hours of incubation)	0 (a score of 0 if no trace of the product of hydrolysis was seen after 8 hours of incubation)
Ac-GATNHGKFL-NH2 [TNHG]	0 (a score of 0 if no trace of the product of hydrolysis was seen after 8 hours of incubation)	0 (a score of 0 if no trace of the product of hydrolysis was seen after 8 hours of incubation)
Ac-GATNHHKFL-NH2 [TNHH]	0 (a score of 0 if no trace of the product of hydrolysis was seen after 8 hours of incubation)	0 (a score of 0 if no trace of the product of hydrolysis was seen after 8 hours of incubation)
Ac-GATNHIKFL-NH2 [TNHI]	0 (a score of 0 if no trace of the product of hydrolysis was seen after 8 hours of incubation)	0 (a score of 0 if no trace of the product of hydrolysis was seen after 8 hours of incubation)
Ac-GATNHKKFL-NH2 [TNHK]	0 (a score of 0 if no trace of the product of hydrolysis was seen after 8 hours of incubation)	0 (a score of 0 if no trace of the product of hydrolysis was seen after 8 hours of incubation)
Ac-GATNHLKFL-NH2 [TNHL]	0 (a score of 0 if no trace of the product of hydrolysis was seen after 8 hours of incubation)	0 (a score of 0 if no trace of the product of hydrolysis was seen after 8 hours of incubation)
Ac-GATNHNKFL-NH2 [TNHN]	0 (a score of 0 if no trace of the product of hydrolysis was seen after 8 hours of incubation)	0 (a score of 0 if no trace of the product of hydrolysis was seen after 8 hours of incubation)
Ac-GATNHPKFL-NH2 [TNHP]	0 (a score of 0 if no trace of the product of hydrolysis was seen after 8 hours of incubation)	0 (a score of 0 if no trace of the product of hydrolysis was seen after 8 hours of incubation)
Ac-GATNHQKFL-NH2 [TNHQ]	0 (a score of 0 if no trace of the product of hydrolysis was seen after 8 hours of incubation)	0 (a score of 0 if no trace of the product of hydrolysis was seen after 8 hours of incubation)
Ac-GATNHRKFL-NH2 [TNHR]	0 (a score of 0 if no trace of the product of hydrolysis was seen after 8 hours of incubation)	3 (a score of 3 for detection at 8 hours)
Ac-GATNHSKFL-NH2 [TNHS]	0 (a score of 0 if no trace of the product of hydrolysis was seen after 8 hours of incubation)	0 (a score of 0 if no trace of the product of hydrolysis was seen after 8 hours of incubation)
Ac-GATNHTKFL-NH2 [TNHT]	0 (a score of 0 if no trace of the product of hydrolysis was seen after 8 hours of incubation)	0 (a score of 0 if no trace of the product of hydrolysis was seen after 8 hours of incubation)
Ac-GATNHVKFL-NH2 [TNHV]	0 (a score of 0 if no trace of the product of hydrolysis was seen after 8 hours of incubation)	0 (a score of 0 if no trace of the product of hydrolysis was seen after 8 hours of incubation)
Ac-GATNHWKFL-NH2 [TNHW]	0 (a score of 0 if no trace of the product of hydrolysis was seen after 8 hours of incubation)	3 (a score of 3 for detection at 8 hours)
Ac-GATNHYKFL-NH2 [TNHY]	0 (a score of 0 if no trace of the product of hydrolysis was seen after 8 hours of incubation)	0 (a score of 0 if no trace of the product of hydrolysis was seen after 8 hours of incubation)
Ac-GATPHAKFL-NH2 [TPHA]		0 (a score of 0 if no trace of the product of hydrolysis was seen after 8 hours of incubation)
Ac-GATPHDKFL-NH2 [TPHD]		0 (a score of 0 if no trace of the product of hydrolysis was seen after 8 hours of incubation)
Ac-GATPHEKFL-NH2 [TPHE]		0 (a score of 0 if no trace of the product of hydrolysis was seen after 8 hours of incubation)

Substance	hydrolysis score from MALDI-TOF screening (37° C.)	hydrolysis score from MALDI-TOF screening (45° C.)
Ac-GATPHFKFL-NH2 [TPHF]		0 (a score of 0 if no trace of the product of hydrolysis was seen after 8 hours of incubation)
Ac-GATPHGKFL-NH2 [TPHG]		0 (a score of 0 if no trace of the product of hydrolysis was seen after 8 hours of incubation)
Ac-GATPHHKFL-NH2 [TPHH]		0 (a score of 0 if no trace of the product of hydrolysis was seen after 8 hours of incubation)
Ac-GATPHIKFL-NH2 [TPHI]		0 (a score of 0 if no trace of the product of hydrolysis was seen after 8 hours of incubation)
Ac-GATPHKKFL-NH2 [TPHK]		0 (a score of 0 if no trace of the product of hydrolysis was seen after 8 hours of incubation)
Ac-GATPHLKFL-NH2 [TPHL]		0 (a score of 0 if no trace of the product of hydrolysis was seen after 8 hours of incubation)
Ac-GATPHNKFL-NH2 [TPHN]		0 (a score of 0 if no trace of the product of hydrolysis was seen after 8 hours of incubation)
Ac-GATPHPKFL-NH2 [TPHP]		0 (a score of 0 if no trace of the product of hydrolysis was seen after 8 hours of incubation)
Ac-GATPHQKFL-NH2 [TPHQ]		0 (a score of 0 if no trace of the product of hydrolysis was seen after 8 hours of incubation)
Ac-GATPHRKFL-NH2 [TPHR]		0 (a score of 0 if no trace of the product of hydrolysis was seen after 8 hours of incubation)
Ac-GATPHSKFL-NH2 [TPHS]		0 (a score of 0 if no trace of the product of hydrolysis was seen after 8 hours of incubation)
Ac-GATPHTKFL-NH2 [TPHT]		0 (a score of 0 if no trace of the product of hydrolysis was seen after 8 hours of incubation)
Ac-GATPHVKFL-NH2 [TPHV]		0 (a score of 0 if no trace of the product of hydrolysis was seen after 8 hours of incubation)
Ac-GATPHWKFL-NH2 [TPHW]		0 (a score of 0 if no trace of the product of hydrolysis was seen after 8 hours of incubation)
Ac-GATPHYKFL-NH2 [TPHY]		0 (a score of 0 if no trace of the product of hydrolysis was seen after 8 hours of incubation)
Ac-GATQHAKFL-NH2 [TQHA]	0 (a score of 0 if no trace of the product of hydrolysis was seen after 8 hours of incubation)	0 (a score of 0 if no trace of the product of hydrolysis was seen after 8 hours of incubation)
Ac-GATQHDKFL-NH2 [TQHD]	0 (a score of 0 if no trace of the product of hydrolysis was seen after 8 hours of incubation)	0 (a score of 0 if no trace of the product of hydrolysis was seen after 8 hours of incubation)
Ac-GATQHEKFL-NH2 [TQHE]	0 (a score of 0 if no trace of the product of hydrolysis was seen after 8 hours of incubation)	0 (a score of 0 if no trace of the product of hydrolysis was seen after 8 hours of incubation)
Ac-GATQHFKFL-NH2 [TQHF]	0 (a score of 0 if no trace of the product of hydrolysis was seen after 8 hours of incubation)	0 (a score of 0 if no trace of the product of hydrolysis was seen after 8 hours of incubation)
Ac-GATQHGKFL-NH2 [TQHG]	0 (a score of 0 if no trace of the product of hydrolysis was seen after 8 hours of incubation)	0 (a score of 0 if no trace of the product of hydrolysis was seen after 8 hours of incubation)
Ac-GATQHHKFL-NH2 [TQHH]	0 (a score of 0 if no trace of the product of hydrolysis was seen after 8 hours of incubation)	0 (a score of 0 if no trace of the product of hydrolysis was seen after 8 hours of incubation)
Ac-GATQHIKFL-NH2 [TQHI]	0 (a score of 0 if no trace of the product of hydrolysis was seen after 8 hours of incubation)	3 (a score of 3 for detection at 8 hours)
